Where a SMILES comes first, the peptide text is derived from it. [ ]: non-standard residue; d: D form. The star is where a group is joined. Hexanoyl = CCCCCC(=O)*; Ahx = NCCCCCC(=O)O
How the values were obtained:
[1] = Plasma stability study, rat plasma; assay type: in vitro ADME; settings: rat, plasma
Description: (§1) Human and rat plasma (K2 EDTA) were obtained from Bioreclamation.
(§2) Compounds were dissolved as 0.3 mM DMSO stocks. Compounds were transferred to the plasma at 1 μM on a 96-well deep well plate. After mixing, samples were transferred to several 96-well plates (25 μL/well), and incubated at 37° C. The extent of metabolism was calculated as the disappearance of the test compound, compared to the 0-min control reaction incubations. Propantheline was included as a positive control to verify assay performance.
(§3) At each of the time points, 150 μL of quench solution (50% acetonitrile, 50% methanol with 0.05% formic acid) with internal standard (bucetin for positive ESI mode and warfarin for negative ESI mode) was transferred to each well. Plates were sealed and centrifuged at 4° C. for 15 minutes at 4000 rpm. The supernatant was transferred to fresh plates for LC/MS/MS analysis.
(§4) Elution conditions are detailed in the table below.
(§5) Initial rates of the clearance of test compounds were calculated using linear regression of semi-log plot of % remaining of compounds versus time. The elimination rate constant (equals to −slope) of the linear regression was then used to determine t½ values.

Caco-2 cells = test: Caco-2 permeability study with or without P-gp inhibitor GF120918; settings: for Abs. Quotient: (Papp A-B with inhibitor − without inhibitor)/Papp A-B with inhibitor; for Caco-2 Cells Permeability Recovery Rate: 1 hr, pH 7.4
[2] = Plasma stability study, human plasma; assay type: in vitro ADME; settings: human, plasma
Description: as §1, §2, §3, §4, §5

[3] = Metabolic stability in simulated intestinal fluid (SIF), pH 6.8, with or without pancreatin; assay type: in vitro ADME; settings: simulated gi fluid, pH 6.8
Description: (§6) Metabolic Stability in SIF and SGF (Simulated Intestinal and Gastric Fluid)
Buffer 3=SIF without enzyme
Buffer 4=SIF with 1% pancreatin
(§7) SIF was prepared freshly with 8.7 mM NaOH, 28.65 mM NaH2PO4, 105.85 mM NaCl, with a final pH of 6.8. SGF was prepared freshly with 34.2 mM NaCl, with a final pH of 1.2. Enzymes such as pepsin or pancreatin were added to some buffers. Human and rat plasma (K2 EDTA) were purchased from BioreclamationIVT.
(§8) Compounds were dissolved as 1.5 mM DMSO stocks. Compounds were transferred to SIF, SGF, or plasma at 5 μM on a 96-well deep well plate. After mixing, samples were transferred to several 96-well plates (25 μL/well), and incubated at 37° C. The extent of metabolism was calculated as the disappearance of the test compound, compared to the 0-min control reaction incubations. Candesartan Cilexetil and omeprazole were included as positive controls for SIF and SGF, respectively, to verify assay performance.
as §3, with “(100% acetonitrile” for “(50% acetonitrile, 50% methanol”, “0.1%” for “0.05%”
as §4, §5

[4] = Metabolic stability in simulated gastric fluid (SGF), pH 1.2, with or without pepsin; assay type: in vitro ADME; settings: simulated gi fluid, pH 1.2
Description: as §6
Buffer 1=SGF without enzyme
Buffer 2=SGF with 0.32% pepsin
as §7, §8
as §3, with “(100% acetonitrile” for “(50% acetonitrile, 50% methanol”, “0.1%” for “0.05%”
as §4, §5

[5] = +GF120918 (10 μM), 10 μM compound

Compound	Plasma Stability Half-Life [1] [min]	Abs. Quotient (Caco-2 cells)	Caco-2 Cells Permeability Recovery Rate (Caco-2 cells; [5]) [%]	Caco-2 Cells Permeability Recovery Rate (Caco-2 cells; −GF120918, 10 μM compound) [%]	Plasma Stability Half-Life [2] [min]	SIF Stability (pH 6.8) Half-Life (min) [3] [min]	SGF Stability (pH 1.2) Half-Life (min) [4] [min]
CCCCCC(=O)NC(Cc1ccc(OC(=O)CN2CCCC2)cc1)C(=O)NC(C(=O)NCCCCCC(N)=O)C(C)CC (centres unmarked) [Compound A24]	64.2	0.88	72	72	7.3	–	–
CCCCCC(=O)NC(Cc1ccc(OC(=O)C(N)C(C)C)cc1)C(=O)NC(C(=O)NCCCCCC(N)=O)C(C)CC (centres unmarked) [Compound A27] (Hexanoyl-Tyr(Val)-Ile-[Ahx]-NH2; configuration not given here)	31.9	0.70	94	90	13.2	–	–
CCCCCC(=O)NC(Cc1ccc(OC(=O)CN(C)C)cc1)C(=O)NC(C(=O)NCCCCCC(N)=O)C(C)CC (centres unmarked) [Compound A25]	8.2	0.77	83	91	10.1	34.7	389.4

From patent publication US12421276B2 (priority 2016, dated 2025)
